How the values were obtained:
[1] = system: xanthine oxidase enzyme; experiment: Xanthine oxidase enzyme activity in tissue, rats with gastric injury without inflammation; format: in vivo; conditions: gastric and colon tissue, 1.11 mmol/kg, vs control group H, FIGS. 24a/24b
Protocol: (§1) The XOR activity was determined in the ultrafiltered, concentrated supernatant by fluorometric kinetic assay based on the conversion of pterine to isoxanthopterine in the presence (total XOR) or absence (xanthine oxidase activity) of the electron acceptor methylene blue.
Further experiments regarding the effect of a compound of formula (I) and a pharmaceutical composition comprising a compound of formula (I), respectively, on gastric injury without inflammation were conducted on rats. 15 animals were randomly allocated into three groups. Group H (n=5) served as sham-operated controls. Samples of all animals were drawn on day 1 of the clinical tests. On day 2 the animals of group I (n=5) were force-fed acetylsalicylic acid (ASS) (1.11 mmol/kg body weight). Group K (n=5) was force-fed 1.11 mmol/kg body weight of the compound according to the invention. Group H only received the respective solvent (25% ethanol in water). One day after the gavage, additional samples were drawn. Fluorescence confocal endomicroscopy was performed to examine the microvasculature and morphologic changes of the mucosa of the distal colon, and full-thickness tissue samples and venous blood samples were taken to determine the biochemical changes in the colon and plasma. The effects were determined by way of measurement of body weight, blood gas analysation and biopsy. […]

[2] = system: xanthine oxidase enzyme; experiment: Xanthine oxidase enzyme activity in tissue, mice with gastric injury without inflammation; format: in vivo; conditions: gastric and duodenal tissue, 1.11 mmol/kg, vs control group A, FIGS. 6a/6b
Protocol: as §1
First experiments regarding the effect of the compound of formula (I) and a pharmaceutical composition comprising the compound of formula (I) (clear aqueous solution of compound of formula (I) at pH 4.8), respectively, on gastric injury without inflammation were conducted on mice. 48 animals were randomly allocated into three groups. Group A (n=16) served as sham-operated controls. Samples of all animals were drawn on day 1 of the clinical tests. On day 2 the animals of group B (n=16) were force-fed acetylsalicylic acid (ASS) (1.11 mmol/kg body weight). Group C (n=16) was force-fed 1.11 mmol/kg body weight of the compound according to the invention. Group A only received the respective solvent (25% ethanol in water). One day after the gavage, additional samples were drawn. Fluorescence confocal endomicroscopy was performed to examine the microvasculature and morphologic changes of the mucosa of the distal colon, […] The effects were determined by way of measurement of body weight, blood gas analysation and biopsy. […]

[3] = system: xanthine oxidase enzyme; experiment: Xanthine oxidase enzyme activity in tissue, rats with TNBS-induced colitis; format: in vivo; conditions: gastric and colon tissue, 1.11 mmol/kg, FIGS. 33a/33b
Protocol: (§2) Colonic inflammation was induced by intracolonic administration of TNBS (2,4,6-trinitrobenzenesulfonic acid) (40 mg/kg in 0.25 ml of 25% aqueous ethanol) through an 8-cm-long soft plastic catheter under transient diethylether anesthesia. In the sham-operated groups, only the vehicle for TNBS was administered. The animals were deprived of food, but not water, for 12 h before the enemas.
as §1
(§3) The above-described clinical studies were repeated with animals having colitis which was induced as described above. […] Two days after the enema the effects of the treatment were determined by measurement of body weight, blood gas analysis and biopsy. […] Surgery was performed to allow registration of the hemodynamic parameters at 1 h intervals for 6 h (cardiac output [CO] data were measured only at the end of the experiments). […] In addition, fluorescence confocal endomicroscopy was performed to examine the microvasculature and morphologic changes of the mucosa of the distal colon, and full-thickness tissue samples and venous blood samples were taken to determine the biochemical changes in the colon and plasma.

[4] = system: nitrite/nitrate (NOx); experiment: Nitrite/nitrate level in blood, rats with TNBS-induced colitis; format: in vivo; conditions: 1.11 mmol/kg, vs groups L and M, FIG. 34
Protocol: as §2
(§4) The levels of plasma nitrite/nitrate (NOx), stable end products of NO were measured by the Griess reaction. This assay depends on the reduction of nitrate to nitrite, which is then converted into a colored azo dye compound that is detected spectrophotometrically at 540 nm.
as §3

[5] = system: colon inflammation; experiment: Macroscopic score of colon inflammation, rats with TNBS-induced colitis; format: in vivo; conditions: 1.11 mmol/kg, Morris score 0-4, untreated colitis group class 3 to 4, FIG. 29
Protocol: Colonic inflammation was induced by intracolonic administration of TNBS (2,4,6-trinitrobenzenesulfonic acid) (40 mg/kg in 0.25 ml of 25% aqueous ethanol) through an 8-cm-long soft plastic catheter under transient diethylether anesthesia. In the sham-operated groups, only the vehicle for TNBS was administered. The animals were deprived of food, but not water, for 12 h before the enemas. […] The other animals only received the respective solvent again. Two days after the enema the effects of the treatment were determined by measurement of body weight, blood gas analysis and biopsy. The animals were anesthetized two days after colitis induction. Surgery was performed to allow registration of the hemodynamic parameters at 1 h intervals for 6 h (cardiac output [CO] data were measured only at the end of the experiments). Intravital videomicroscopy was performed at the end of the experiments to visualize the serosal microcirculation 3 cm distal from the cecum. In addition, fluorescence confocal endomicroscopy was performed to examine the microvasculature and morphologic changes of the mucosa of the distal colon, and full-thickness tissue samples and venous blood samples were taken to determine the biochemical changes in the colon and plasma. […]

[6] = system: xanthine oxidase enzyme; experiment: Xanthine oxidase enzyme activity in tissue, mice with TNBS-induced colitis; format: in vivo; conditions: gastric and colon tissue, 1.11 mmol/kg, FIGS. 14a/14b
Protocol: as §2, §1, §3

[7] = system: nitrite/nitrate (NOx); experiment: Nitrite/nitrate level, colitis animals, comparison with GM-20 (FIG. 35); format: in vivo, rats; conditions: 1.11 mmol/kg body weight, vs sham control group P
Protocol: as §4
The above-described clinical studies were repeated with animals having colitis which was induced as described above. 20 animals (rats) were randomly divided into four groups, wherein group L served as sham-operated control, having no colitis, group M served as second control having colitis but receiving no further treatment, group N having colitis and being treated with 1.11 mmol/kg body weight of ASS and group O having colitis and being treated with 1.11 mmol/kg of the compound according to the invention. One day after the animals received the enema with TNBS (40 mg/kg i.c.), wherein the animals of group L only received the respective solvent, the animals of group N and O were treated with ASS and the compound according to the invention, respectively. The other animals only received the respective solvent again. Two days after the enema the effects of the treatment were determined by measurement of body weight, blood gas analysis and biopsy. […] Surgery was performed to allow registration of the hemodynamic parameters at 1 h intervals for 6 h (cardiac output [CO] data were measured only at the end of the experiments). […] In addition, fluorescence confocal endomicroscopy was performed to examine the microvasculature and morphologic changes of the mucosa of the distal colon, and full-thickness tissue samples and venous blood samples were taken to determine the biochemical changes in the colon and plasma.
The tests were conducted according to the above described protocol. […] Comparative compound GM-20 is described in the state of the art as being suitable for the therapeutic treatment pathologic disorders characterized by degranulation of the mast cells caused by immunogenic hyperstimulation (see U.S. Pat. No. 5,506,224) The nitrite/nitrate level was measured as described above.

SMILES	activity of xanthine oxidase enzyme [1]	activity of xanthine oxidase enzyme [2]	activity of xanthine oxidase enzyme [3]	nitrite/nitrate level in the blood [4]	macroscopic score of colon inflammation [5]	activity of xanthine oxidase enzyme [6]	nitrite/nitrate level [7]
CC(=O)Oc1ccccc1C(=O)O [ASS, acetylsalicylic acid, reference compound]	increased activity	increased activity	only a slight decrease in activity	increased nitrite/nitrate level	slightly less severe symptoms	only a slight decrease in activity	increased nitrite/nitrate level
CC(=O)Oc1ccccc1C(=O)NC(CO)(CO)CO [compound according to the invention]	no such increase	no such increase	enzyme activity comparable to that of healthy animals	nitrite/nitrate levels comparable to those of healthy animals	only showed increased erythema	enzyme activity comparable to that of healthy animals	did not lead to an increase in the nitrite/nitrate level

From patent US20160326098A1, “Pharmaceutically Active Compound for Use as Anti-inflammatory Agent” (Pax Forschung GmbH, priority 2013, published 2016)
